# Experimental data: ChEMBL document CHEMBL1201862, “PubChem BioAssay data set” (2004)
# Activity calls are given as the source filed them.
# Target: T1, Protein skinhead-1 (Caenorhabditis elegans, UniProt P34707)
# T1 sequence (P34707 whole entry): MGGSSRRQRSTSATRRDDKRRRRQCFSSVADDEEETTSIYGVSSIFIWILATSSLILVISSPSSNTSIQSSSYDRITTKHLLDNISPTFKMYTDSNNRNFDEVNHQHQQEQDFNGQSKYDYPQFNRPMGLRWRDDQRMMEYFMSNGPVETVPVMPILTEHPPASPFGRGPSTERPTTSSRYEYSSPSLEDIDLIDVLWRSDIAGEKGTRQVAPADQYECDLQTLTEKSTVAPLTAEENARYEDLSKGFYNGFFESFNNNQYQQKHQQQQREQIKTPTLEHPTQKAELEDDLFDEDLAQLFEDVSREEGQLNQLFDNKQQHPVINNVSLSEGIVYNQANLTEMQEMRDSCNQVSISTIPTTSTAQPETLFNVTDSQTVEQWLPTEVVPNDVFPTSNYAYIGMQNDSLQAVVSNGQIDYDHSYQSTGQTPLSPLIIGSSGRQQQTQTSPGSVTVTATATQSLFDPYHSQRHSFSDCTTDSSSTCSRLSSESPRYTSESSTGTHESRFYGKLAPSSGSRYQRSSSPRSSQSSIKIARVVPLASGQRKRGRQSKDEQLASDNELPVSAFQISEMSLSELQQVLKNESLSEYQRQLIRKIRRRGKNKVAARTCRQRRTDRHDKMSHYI
# Assay: not given
# Type: functional
# Conditions: not given
row,SMILES,IC50
1,O=C(/C=C/c1ccco1)Nc1nc(-c2ccccc2)cs1,68.6 µM (inactive)
2,Cc1c(C(=O)/C=C/c2cccs2)oc2ccc(F)cc12,> 100 µM (inactive)
3,CC(C)Oc1cccc(C(=O)Nc2ccc(CN3CCOCC3)cc2)c1,31.1 µM (active)
4,N#Cc1ccc(CN2CCN(C(=O)c3cc(C4CC4)nn3-c3ccccc3)CC2)cc1,37.5 µM (active)
5,COC(=O)c1ccc2nc(-c3ccc(C)cc3)c(Cc3cccc(F)c3)n2c1,> 100 µM (inactive)
6,CC(=O)c1ccc(-n2nncc2-c2ccc([N+](=O)[O-])cc2)cc1,> 100 µM (inactive)
7,O=[N+]([O-])c1ccc(COc2ccc(CN3CCCCC3)cc2)cc1,3.46 µM (active)
8,CCCCN1C[C@H](c2ccc(Br)cc2)[C@@H](CC(=O)Nc2ccc(Br)cc2)C1=O,> 100 µM (inactive)
9,CC(=O)Nc1ccc2c(c1Br)Cc1ccccc1-2,> 100 µM (inactive)
10,CCCCCn1cnc2sc(-c3ccccc3)cc2c1=O,> 100 µM (inactive)
11,C#CCN1C(=O)S/C(=C/C=C/c2ccc(N(C)C)cc2)C1=O,> 100 µM (inactive)

# Target: FAD-linked sulfhydryl oxidase ALR (Homo sapiens, UniProt P55789)
# Assay: inhibitors of human ALR sulfhydryl oxidase, dose response, biochemical, H2O2 detection, luminescence, cherry-pick (AID 493248)
# Conditions: not given
# FAD-linked sulfhydryl oxidase ALR, sequence (P55789 whole entry): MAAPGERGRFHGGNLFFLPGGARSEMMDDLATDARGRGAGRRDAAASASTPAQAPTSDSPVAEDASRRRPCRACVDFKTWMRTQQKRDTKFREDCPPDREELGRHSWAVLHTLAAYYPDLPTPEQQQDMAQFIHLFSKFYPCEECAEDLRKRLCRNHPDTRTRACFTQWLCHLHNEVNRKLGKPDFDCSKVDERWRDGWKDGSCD
row,SMILES,AC50
1,FC(F)(F)c1ccc(-c2n[nH]c(S)n2)cc1,0.248 µM (active)
2,Nc1ccccc1C#Cc1ccc2[nH]ccc2c1,14.9 µM (active)
3,Cc1c(/C=N\NC(=O)c2ccc(F)cc2)cnn1C,4.3 µM (active)
4,CC(=O)Nc1ccc(NC(=O)CC2Nc3cccc4cccc(c34)NC2=O)cc1 (stereo not drawn),7.99 µM (active)
5,CC1(c2ccc(O)cc2)NC(=O)N(c2ccccc2)N1 (stereo not drawn),0.015 µM (active)
6,COc1ccc(N2CCN(C(CNC(=O)C(C)C)c3ccc4c(c3)OCO4)CC2)cc1 (stereo not drawn),4.01 µM (active)
7,Cc1ccc2nc(C)cc(N/N=C/c3cccnc3)c2c1,6.08 µM (active)
8,CC(/C=N/n1c(S)nnc1-c1ccccn1)=C\c1ccccc1,5.86 µM (active)
9,CC(=O)c1ccc(S(=O)(=O)Nc2cccc(S(=O)(=O)NC3=NCCC3)c2)cc1,> 100 µM (inactive)

# System: H4
# Assay: Luminescence Cell-Based Dose Response HTS to Identify Activators of 5'UTR Stem-Loop Driven Prion Protein mRNA Translation in H4 Neuroglioblastoma Cells. [Related pubchem assays: 1829 (Project Summary), 1814 (Primary HTS)]
# Type: functional
# Conditions: Homo sapiens
row,SMILES,EC50
1,Cc1c(C(=O)/C=C/c2cccs2)oc2ccc(F)cc12,34.1 µM (inconclusive)
2,CN(CCOC(=O)CN1C(=O)c2ccccc2C1=O)C1=NS(=O)(=O)c2ccccc21,> 120 µM (not active)
3,Cc1cc(C(c2nnnn2Cc2ccccc2)N2CCOCC2)c(C)n1-c1ccc2c(c1)OCO2 (stereo not drawn),35.6 µM (active)
4,CCCCCn1cnc2sc(-c3ccccc3)cc2c1=O,6.94 µM (active)
5,N#C/C(=C\C1CC=CCC1)c1nc2ccccc2[nH]1 (stereo not drawn),23.7 µM (active)
6,O=C(c1cnn2c1NC(c1ccco1)CC2C(F)(F)F)N1CCN(c2cccc(Cl)c2)CC1 (stereo not drawn),> 120 µM (not active)

# System: not listed separately
# Assay: P. falciparum Dd2 growth inhibitors, dose response, SYBR Green, cherry-picked samples (AID 1159567)
# Type: functional, cell-based
# Conditions: not given
row,SMILES,AC50
1,COc1cccc(CN2[C@@H]3CNC[C@H]2[C@H]3c2ccc(-c3ccccc3OC)cc2)c1,5.81 µM (active)
2,CCCC(=O)N1CC2(C1)CN(Cc1ccc(Cl)cc1)[C@H](CO)c1[nH]c3cc(OC)ccc3c12,6.65 µM (active)
3,COc1ccc2c3c([nH]c2c1)[C@@H](CO)N(S(C)(=O)=O)CC31CCN(Cc2cccc(F)c2)CC1,4.86 µM (active)
4,O=C(c1ccccn1)N1CC(=O)N2[C@H](CO)[C@@H](c3ccc(C#CCc4ccccc4)cc3)[C@@H]2C1,6.31 µM (active)
5,CCNC(=O)c1cc2c(c(-c3cccc(-c4cc5ccccc5o4)c3)n1)[C@@H](CCO)N(C(=O)NC(C)C)C2,6.29 µM (active)
6,OC[C@H]1CC[C@@H]2O[C@H](CCc3ccc(-c4ccc(F)cc4)cc3)[C@H](n3cc(C4CC4)nn3)C[C@@H]2O1,5 µM (active)

# System: not listed separately
# Assay: Luminescence Cell-Based Dose Confirmation HTS to Identify Activators of 5'UTR Stem-Loop Driven Alpha-Synuclein mRNA Translation in H4 Neuroglioblastoma Cells. [Related pubchem assays: 1829 (Project Summary), 1814 (Primary HTS)]
# Type: functional
# Conditions: not given
row,SMILES,EC50
1,CN(CCOC(=O)CN1C(=O)c2ccccc2C1=O)C1=NS(=O)(=O)c2ccccc21,> 120 µM (not active)
2,Cc1cc(C(c2nnnn2Cc2ccccc2)N2CCOCC2)c(C)n1-c1ccc2c(c1)OCO2 (stereo not drawn),91.8 µM (active)
3,N#C/C(=C\C1CC=CCC1)c1nc2ccccc2[nH]1 (stereo not drawn),21.9 µM (active)
4,O=C(c1cnn2c1NC(c1ccco1)CC2C(F)(F)F)N1CCN(c2cccc(Cl)c2)CC1 (stereo not drawn),> 120 µM (not active)

# System: not listed separately
# Assay: Luminescence Cell-Based Dose Response HTS to Identify Activators of Luciferase Translation or Activity in H4 […] Cells. [Related pubchem assays: 1829 (Project Summary), 1814 (Primary HTS)]
# Type: functional
# Conditions: not given
row,SMILES,EC50
1,Cc1c(C(=O)/C=C/c2cccs2)oc2ccc(F)cc12,0.139 µM (active)
2,CN(CCOC(=O)CN1C(=O)c2ccccc2C1=O)C1=NS(=O)(=O)c2ccccc21,46.8 µM (active)
3,Cc1cc(C(c2nnnn2Cc2ccccc2)N2CCOCC2)c(C)n1-c1ccc2c(c1)OCO2 (stereo not drawn),> 120 µM (not active)
4,CCCCCn1cnc2sc(-c3ccccc3)cc2c1=O,2.43 µM (active)
5,N#C/C(=C\C1CC=CCC1)c1nc2ccccc2[nH]1 (stereo not drawn),26.3 µM (active)
6,O=C(c1cnn2c1NC(c1ccco1)CC2C(F)(F)F)N1CCN(c2cccc(Cl)c2)CC1 (stereo not drawn),> 120 µM (not active)

# Target: Paired box protein Pax-8 (Homo sapiens, UniProt Q06710)
# Assay: inhibitors of PAX8-driven TPO luciferase reporter, dose response, RMG-I cells, cherry-pick (AID 687027);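 note: luciferase reporter driven by Pax8 target thyroperoxidase promoter measured by SteadyGlo luminescence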
# Type: functional, cell-based
# Conditions: not given
# Paired box protein Pax-8, sequence (Q06710 whole entry): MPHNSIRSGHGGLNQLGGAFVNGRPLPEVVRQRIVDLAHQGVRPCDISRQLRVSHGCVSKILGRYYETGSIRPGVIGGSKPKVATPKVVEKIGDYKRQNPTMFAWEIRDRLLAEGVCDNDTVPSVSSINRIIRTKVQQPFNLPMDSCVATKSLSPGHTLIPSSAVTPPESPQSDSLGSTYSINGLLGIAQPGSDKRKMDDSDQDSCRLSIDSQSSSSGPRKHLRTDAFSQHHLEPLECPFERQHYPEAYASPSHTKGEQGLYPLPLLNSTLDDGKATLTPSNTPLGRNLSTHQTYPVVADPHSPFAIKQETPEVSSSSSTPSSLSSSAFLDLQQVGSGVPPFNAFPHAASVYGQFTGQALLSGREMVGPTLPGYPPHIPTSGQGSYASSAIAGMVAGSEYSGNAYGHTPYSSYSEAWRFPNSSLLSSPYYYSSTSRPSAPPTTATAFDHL
row,SMILES,AC50
1,C[C@@H]1CN([C@@H](C)CO)S(=O)(=O)c2ccc(C#Cc3ccc(F)cc3)cc2O[C@@H]1CN(C)C(=O)NC1CCCCC1,8.43 µM (active)
2,C[C@@H]1CN([C@H](C)CO)C(=O)c2cc(NS(=O)(=O)c3ccc(F)cc3)ccc2O[C@@H](C)CCCCO[C@H]1CN(C)Cc1ccccc1,17.2 µM (active)
3,CCCCCc1cc(=O)oc2c(C(CCN3CCCCC3)c3ccc4c(c3)OCO4)c(OC)cc(OC)c12 (stereo not drawn),13.4 µM (active)
4,COc1cccc(S(=O)(=O)N2CC[C@@H]3[C@H](CO)Nc4ccc(C5=CCCCC5)cc4[C@@H]32)c1,10 µM (active)

# System: not listed separately
# Assay: cells
# Type: functional, cell-based
# Conditions: not given
row,SMILES,EC50
1,FC(F)(F)c1ccc(-c2n[nH]c(S)n2)cc1,> 350 µM (not active)

# Target: Cytochrome P450 2C19 (Homo sapiens, UniProt P33261)
# Assay: Cytochrome panel assay with activity outcomes. Panel member name: p450-cyp2c19 Compounds with AC50 equal or less than 10 uM are considered active
# Type: functional
# Conditions: read-out: AC50
# Cytochrome P450 2C19, sequence (P33261 whole entry): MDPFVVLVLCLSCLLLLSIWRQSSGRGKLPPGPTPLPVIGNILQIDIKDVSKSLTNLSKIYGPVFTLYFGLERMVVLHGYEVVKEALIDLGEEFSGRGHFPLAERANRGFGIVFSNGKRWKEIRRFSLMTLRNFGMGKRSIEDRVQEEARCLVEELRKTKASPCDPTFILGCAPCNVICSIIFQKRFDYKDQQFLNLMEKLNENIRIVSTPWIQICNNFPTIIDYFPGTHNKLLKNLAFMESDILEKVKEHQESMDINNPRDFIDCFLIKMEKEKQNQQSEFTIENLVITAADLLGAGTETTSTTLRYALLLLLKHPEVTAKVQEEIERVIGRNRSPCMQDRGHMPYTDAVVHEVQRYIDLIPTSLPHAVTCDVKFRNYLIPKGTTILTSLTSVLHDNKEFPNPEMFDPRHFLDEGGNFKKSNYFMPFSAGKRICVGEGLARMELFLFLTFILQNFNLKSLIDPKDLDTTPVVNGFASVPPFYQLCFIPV
row,SMILES,AC50
1,CC(=O)Nc1ccc(NC(=O)CC2Nc3cccc4cccc(c34)NC2=O)cc1 (stereo not drawn),39.8 µM (inconclusive)

# System: INS1
# Assay: beta cell apoptosis inhibitors, cytokine rescue, dose response, luminescence, retest (AID 449756);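 note: cell death triggered by IL-1 beta plus TNF-alpha plus IFN-gamma mixture; protective hits raise ATP signal compared with cytokine alone wells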
# Type: functional, cell-based
# Conditions: Rattus norvegicus
row,SMILES,AC50
1,CCCCCc1cc(=O)oc2c(C(CCN3CCCCC3)c3ccc4c(c3)OCO4)c(OC)cc(OC)c12 (stereo not drawn),8 µM (active)

# Target: T2, Rac GTPase-activating protein 1 (Homo sapiens, UniProt Q9H0H5)
# T2 sequence (Q9H0H5 whole entry): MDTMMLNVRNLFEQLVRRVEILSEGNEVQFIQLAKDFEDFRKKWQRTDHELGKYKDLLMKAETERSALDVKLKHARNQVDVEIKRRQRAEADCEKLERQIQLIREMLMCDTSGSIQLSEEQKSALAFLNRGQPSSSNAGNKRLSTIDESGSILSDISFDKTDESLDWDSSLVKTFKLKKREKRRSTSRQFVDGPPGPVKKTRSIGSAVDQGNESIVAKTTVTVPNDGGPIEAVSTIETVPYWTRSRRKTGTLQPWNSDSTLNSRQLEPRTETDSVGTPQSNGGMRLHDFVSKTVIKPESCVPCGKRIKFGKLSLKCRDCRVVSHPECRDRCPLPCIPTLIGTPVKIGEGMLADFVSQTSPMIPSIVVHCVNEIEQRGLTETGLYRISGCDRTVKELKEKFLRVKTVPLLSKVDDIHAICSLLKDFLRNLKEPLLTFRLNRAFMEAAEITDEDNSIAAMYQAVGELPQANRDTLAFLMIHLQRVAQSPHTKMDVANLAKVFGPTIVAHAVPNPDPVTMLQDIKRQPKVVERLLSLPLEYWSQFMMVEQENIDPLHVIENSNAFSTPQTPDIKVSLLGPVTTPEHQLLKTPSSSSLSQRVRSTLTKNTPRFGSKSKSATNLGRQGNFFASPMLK
# Assay: MgcRacGAP GTPase-activating activity inhibitors, confirmation, biochemical, ADP Hunter fluorescence, primary and confirmatory (AID 624330)
# Type: functional
# Conditions: not given
row,SMILES,IC50
1,Fc1ccc(CN2CCN(C(c3ccccc3)c3ccccc3)CC2)cc1,236 µM (active)
2,CN(C)c1ccc(NC(=O)COC(=O)CNC(=O)c2cccs2)cc1,45.6 µM (active)
3,COc1ccc(NC2CCCN(C(=O)CCN3CCCO3)C2)cc1 (stereo not drawn),128 µM (active)
4,Cc1cn([C@H]2C[C@H](O)[C@@H](CNCC3=Cc4cc(O)ccc4OC3)O2)c(=O)[nH]c1=O,95.9 µM (active)
5,COc1ccc(NC2CCCN(C(=O)C3=NNC(=O)CC3)C2)cc1 (stereo not drawn),120 µM (active)
6,COc1ccccc1C(=O)N1CCN(Cc2cccnc2)CC1,101 µM (active)
7,COCCCNC(=O)/C(C#N)=C/c1c(N2CCN(c3ccc(OC)cc3)CC2)nc2c(C)cccn2c1=O,114 µM (active)

# System: not listed separately
# Assay: growth suppression of beta-catenin-knockout colon cells, dose response, cell-based, HCT116, human colon tumor (AID 1045);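 note: HCT116 colon tumor cells with beta catenin knocked out; cells exposed to compound for 60 hours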
# Type: functional
# Conditions: not given
row,SMILES,EC50
1,O=C(NC(c1ccc(Cl)cc1)c1c(O)ccc2ccccc12)c1ccccc1 (stereo not drawn),8.69 µM (active)
2,CCN1CCN(CC(=O)Nc2sc3c(c2C#N)CCC(C)C3)CC1 (stereo not drawn),17.9 µM (active)
3,O=C(Nc1ccccc1NC(=O)NC1CCCCC1)NC1CCCCC1,17.8 µM (active)

# System: not listed separately
# Assay: HEp-2 cell cytotoxicity, dose response, cytotoxicity control for RSV inhibitor project, HTS (AID 2410)
# Type: functional
# Conditions: human respiratory syncytial virus
row,SMILES,CC50
1,CCCCCn1cnc2sc(-c3ccccc3)cc2c1=O,> 50 µM (active)
2,N#C/C(=C\C1CC=CCC1)c1nc2ccccc2[nH]1 (stereo not drawn),23.4 µM (active)

# System: not listed separately
# Assay: growth suppression of PTEN-null colon cells, dose response, cell-based, HCT116 PTEN knockout (AID 1047);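 note: HCT116 colon tumor cells with PTEN knocked out; cells exposed to compound for 60 hours before readout; potency for loss of cell viability measured by luminescence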
# Type: functional
# Conditions: not given
row,SMILES,EC50
1,O=C(NC(c1ccc(Cl)cc1)c1c(O)ccc2ccccc12)c1ccccc1 (stereo not drawn),7.75 µM (active)
2,CCN1CCN(CC(=O)Nc2sc3c(c2C#N)CCC(C)C3)CC1 (stereo not drawn),15.8 µM (active)
3,O=C(Nc1ccccc1NC(=O)NC1CCCCC1)NC1CCCCC1,15.1 µM (active)

# System: not listed separately
# Assay: cells
# Type: functional, cell-based
# Conditions: not given
# Remark: another data set of the same source
row,SMILES,EC50
1,FC(F)(F)c1ccc(-c2n[nH]c(S)n2)cc1,> 350 µM (not active)

# System: not listed separately
# Assay: Luminescence Cell-Based Dose Retest to Confirm Inhibitors of Cancer Stem Cells. [Related pubchem assays (depositor defined):AID2717, AID2721]
# Type: functional
# Conditions: Homo sapiens
row,SMILES,AC50
1,O=C(NC(c1ccc(Cl)cc1)c1c(O)ccc2ccccc12)c1ccccc1 (stereo not drawn),1.23 µM (active)
2,CC1(c2ccc(O)cc2)NC(=O)N(c2ccccc2)N1 (stereo not drawn),4.14 µM (active)
3,CCCCCc1cc(=O)oc2c(C(CCN3CCCCC3)c3ccc4c(c3)OCO4)c(OC)cc(OC)c12 (stereo not drawn),6.41 µM (active)
